# Patent US20250134889A1, “TARGETING IRE1 KINASE AND FMRP FOR PROPHYLAXIS, MANAGEMENT AND TREATMENT OF ATHEROSCLEROSIS” (CEDARS-SINAI MEDICAL CENTER, priority 2022, published 2025)
# Biological target: T1, IRE1 kinase activity (Mus musculus, UniProt Q9EQY0)
# T1 construct: from tissue; host or cells: thioglycolate-elicited peritoneal macrophages of C57BL/6 mice
# Assay: IRE1 and FMRP phosphorylation in peritoneal macrophages of TM-injected mice (western blot)
# Type: in vivo
# Conditions: C57BL/6, AMG-18 30 mg/kg 8 hours, TM 1 mg/kg
# Description: FIGS. 1A-1K depict FMRP is a new inositol-requiring enzyme-1 (IRE1) kinase substrate. A representative blot is shown from at least n=3 independent experiments. Data are mean±SEM. Unpaired 1-test with Welch's correction or paired 1-test. * P≤0.05, ** P≤0.01, *** P≤0.001. • 1A. STING analysis of published IRE1 interactome proteins in relation to FMRP (Acosta-Alvear et al., 2018). • 1B. HEK293T cells were co-transfected with IRE1 and FMRP plasmids and stimulated with TG (600 nM) or TM (1 mg/ml) for 2 hours. Protein lysates were immunoprecipitated (IP) with anti-IRE1 or IgG (control) antibodies and analyzed by Western blotting using specific antibodies for FMRP and IRE1 (n=3). • 1C. RAW 264.7 mouse macrophages were treated with either oxLDL (50 μg/ml) or TG (300 nM) for 6 hours. Protein lysates were treated with λ Phosphatase (PPase) for 30 minutes and analyzed by western blotting using specific antibodies for pFMRP, FMRP, pIRE1, IRE1 and β-Actin. pFMRP/FMRP fold induction is depicted above the blots (n=6). • 1D. […] Protein lysates were analyzed by western blotting using specific antibodies for pFMRP, FMRP, pIRE1, IRE1 and β-Actin. pFMRP/FMRP-fold induction is depicted above the blots (n=5). • 1E. […] Protein lysates were analyzed by western blotting using specific antibodies for pFMRP, FMRP, pIRE1, IRE1 and β-Actin. pFMRP/FMRP fold induction is depicted above the blots (n=4). • 1F. […]
# T1 sequence (Q9EQY0 21-977): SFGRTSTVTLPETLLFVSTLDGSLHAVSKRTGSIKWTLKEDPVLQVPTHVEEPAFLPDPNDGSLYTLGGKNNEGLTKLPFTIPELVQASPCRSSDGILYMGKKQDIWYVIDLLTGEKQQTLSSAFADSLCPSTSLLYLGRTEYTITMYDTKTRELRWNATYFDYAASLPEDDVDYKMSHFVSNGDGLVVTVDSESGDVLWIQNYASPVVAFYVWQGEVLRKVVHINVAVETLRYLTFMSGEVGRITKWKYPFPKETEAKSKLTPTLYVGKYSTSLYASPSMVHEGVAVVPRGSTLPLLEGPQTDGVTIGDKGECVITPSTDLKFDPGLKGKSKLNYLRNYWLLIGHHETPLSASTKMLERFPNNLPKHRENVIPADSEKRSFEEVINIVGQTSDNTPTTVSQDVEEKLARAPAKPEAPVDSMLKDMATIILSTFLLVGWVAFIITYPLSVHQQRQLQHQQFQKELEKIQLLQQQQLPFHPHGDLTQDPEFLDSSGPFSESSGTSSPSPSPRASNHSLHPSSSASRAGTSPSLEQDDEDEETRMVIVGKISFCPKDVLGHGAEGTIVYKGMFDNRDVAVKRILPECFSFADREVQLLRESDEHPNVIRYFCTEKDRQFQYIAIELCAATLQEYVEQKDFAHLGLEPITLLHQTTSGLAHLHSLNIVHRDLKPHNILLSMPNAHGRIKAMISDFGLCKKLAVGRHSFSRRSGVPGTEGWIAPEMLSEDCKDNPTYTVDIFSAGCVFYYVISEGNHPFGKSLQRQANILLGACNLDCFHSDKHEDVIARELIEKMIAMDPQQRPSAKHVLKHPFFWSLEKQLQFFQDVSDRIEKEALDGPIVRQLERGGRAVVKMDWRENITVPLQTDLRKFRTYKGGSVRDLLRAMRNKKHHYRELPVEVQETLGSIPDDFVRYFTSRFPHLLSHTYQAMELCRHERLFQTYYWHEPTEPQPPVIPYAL
smiles,measurement,value
Cc1ccc2c(NS(=O)(=O)c3ccccc3Cl)cccc2c1Oc1ncccc1-c1ccnc(N[C@H]2CCCNC2)n1 [AMG-18],FMRP phosphorylation in PM,reduced
same,IRE1 kinase activity (pIRE1) in PM,inhibited
